These results are taken from publication PMC6799938, “Determinants of drug entry into the developing brain” (F1000Research, 2019).

For series [1] the following is noted: Sprague Dawley, rat, in vivo.
A short description of series [2]: Entry of "passive" markers into brain and CSF. As to the method:
(§1) Experimental procedure. In acute drug experiments, a single dose was injected that included traces of [ ^3H]-labelled drug (20µCi adults, 2µCi newborns). In chronic experiments, doses of unlabelled drug were given twice daily (09.00 and 17.00h) for four days before a final injection on the 5 ^th day identical to acute experiments. In passive marker experiments, all dosing was acute and contained only the [ ^3H]- or [ ^14C]-labelled compound (20µCi adults, 2µCi newborns).
(§2) In all experiments involving postnatal animals, injections were intraperitoneal (i.p.). In pregnant animals for fetal drug entry studies, the final injection of the radiolabelled marker was given intravenously (i.v.), as the peritoneal cavity required opening prior to the sampling period to gain access to the fetuses. For passive markers (L-glucose, sucrose and glycerol), fetal animals were individually injected i.p. while still within the uterine horn. All experiments took place between 09.00 and 15.00h. All pregnancy studies were completed with a single treatment group on one day. Postnatal groups were conducted with a single treatment group on one day or with the chronic group completed prior to the acute group.
(§3) Sample collection. Samples were collected 30 minutes after the final injection. This duration was chosen partly to limit any potential metabolism of the drugs and markers used but also to allow enough time for i.p. injected markers to reach the blood stream and, from there, to access the brain parenchyma across brain barriers, as well as to limit the CSF sink effect that could influence drug levels ( [Bito et al., 1966]). Thirty minutes is also within the half-life of these drugs ( [Adedoyin et al., 1987]; [Harrison & Gibaldi, 1976]; Lin & Levy, 1963). The other reason a 30-minute duration was chosen is that in the case of exposed fetal rat pups, it is difficult to maintain them in a reasonable physiological state for long periods due to deterioration of placental perfusion. Therefore, for comparative purposes, all studies were conducted at the same time.
For adult and newborn (P4) experiments, animals were terminally anaesthetized using inhaled isofluorane (IsoFlo 100% w/w, Abbott Laboratories). Blood samples were collected from the right cardiac ventricle, CSF from the cisterna magna (Habgood et al., 1992) and cortical segments of brain tissue dorsal to the ventricle of the frontal/parietal lobes, as previously described ( [Koehn et al., 2019]). Blood and CSF sampling from the P4 animals was terminal and would thus not have affected the physiological state of the animals during the experiment.
Sample preparation. Samples were processed immediately after collection. Blood was centrifuged at 7000rpm for five minutes and the plasma separated. CSF samples were examined microscopically for traces of red blood cells and discarded if contaminated (Habgood et al., 1992). In all experiments, the radioactivity in the injectate was also measured to confirm the uniformity of the injected material. All samples were weighed and transferred into scintillation vials. Soluene350 (0.5ml, PerkinElmer) was added to the brain samples. After being incubated at 36°C overnight to allow the tissue to solubilize, two drops of glacial acetic acid (Sigma) were added to neutralize the strongly alkaline Soluene350. All samples were then mixed with 5ml of scintillation fluid (Emulsifier-safe, PerkinElmer) before being transferred into the liquid scintillation counter (Tri-Carb 4910 TR, PerkinElmer) to count radioactivity disintegrations per minute (DPM) over five minutes each with luminescence correction on. Blank vials containing the same tissues without radioactivity were also counted alongside the samples to establish the level of background counts, which were always subtracted from the radioactivity counts of the corresponding experimental samples.
BrainorCSFtransfer=BrainorCSFDPM/μl/plasmaDPM/μl×100%

For series [3] the following is noted: for Brain radioactivity level / CSF radioactivity level / Plasma radioactivity level: mean. As to the method: Animals. Sprague Dawley rats were supplied by the University of Melbourne Biological Research Facility and housed in groups of 2–4 (adult) or full litters per cage (25cm x 35cm x 25cm on Breeders Choice paper bedding, made from 99% recycled paper; it is biodegradable with no added chemicals), on a 12 h light/dark cycle with ad libitum access to food (dry pellets of a fixed formulation diet for laboratory rats and mice fortified with vitamins and minerals to meet the requirements of breeding animals after the diet is autoclaved or irradiated, supplied by Speciality Feeds, Western Australia) and water. Age groups investigated (at treatment completion) were time mated pregnant females at E19 (350-400g body weight), postnatal pups at P4 and non-pregnant female adults (175-230g body weight). E19 was chosen because this is a stage of development when adequate volumes of blood and CSF can be obtained for analysis from fetal rats without pooling ( [Dziegielewska et al., 1981]) and individual pups can be injected intraperitoneally while still inside the uterine horn and kept viable for periods of time. P4 was chosen because its stage of brain development is similar to that of very prematurely born but viable human infants of 22–24 weeks gestation ( [Clancy et al., 2001]). Animal numbers were based on previous experience of such experiments and were the minimum number required to detect a significant difference between groups at P <0.05.
Drug doses. Drug doses were selected based on use in clinical practice ( [Australian Medicines Handbook, 2019]) and adjusted for body weight.
as §1, §2, §3
For adult and newborn (P4) experiments, animals were terminally anaesthetized using inhaled isofluorane (IsoFlo 100% w/w, Abbott Laboratories).

Where [4] appears, read: passive marker, E19, 60-minute, separate experimentation.
The mark [5] stands for this setting: passive marker, E19, 30 minutes after i.p. injection.
Setting [6] is: passive marker, P4, 30 minutes after i.p. injection.
[7] abbreviates: passive marker, adults, 30 minutes after i.p. injection.
[8] abbreviates: E19 fetuses, acute, 30 min - […] after administration.
The mark [9] stands for this setting: E19 fetuses, chronic (twice daily over five days), 30 min - […] after final dose.
[10] abbreviates: P4, chronic i.p. (twice daily over five days), 30 min after final dose.
Where [11] appears, read: adult, chronic i.p. (twice daily over five days), 30 min after final dose.

Each structure is given as a SMILES string. Where two headings read alike, the source gives them in different places.

In the case of `C[C@H]1O[C@@H](O[C@H]2[C@@H](O)C[C@H](O[C@H]3[C@@H](O)C[C@H](O[C@H]4CC[C@@]5(C)[C@H](CC[C@@H]6[C@@H]5C[C@@H](O)[C@]5(C)[C@@H](C7=CC(=O)OC7)CC[C@]65O)C4)O[C@@H]3C)O[C@@H]2C)C[C@H](O)[C@@H]1O` [Digoxin], the “restriction of transfer by the placenta” value in series [1] is recorded as “about 60%”.

With `OCC(O)CO` [Glycerol], in series [2] (setting [4]), the CSF concentration ratio is about 100% and the brain concentration ratio result is reported as “approximately 80%”. In addition, in series [2] (setting [5]), the Brain/Plasma Ratio turned out to be 46.8% and the CSF/Plasma Ratio was 46.8%. Moreover, in series [2] (setting [6]), the Brain/Plasma Ratio turned out to be 82.2% and the CSF/Plasma Ratio came out at 95%. In series [2] (setting [7]), the Brain/Plasma Ratio amounted to 85.5% and the CSF/Plasma Ratio stood at 103.9%. In series [1], the “Fetal/Maternal plasma concentration ratio, range” value is “(68.1 - 134.7) %”.

On to `CC(=O)Nc1ccc(O)cc1` [Paracetamol], for which the “transfer from maternal blood to fetal brain” value in series [3] (E19, acute) is 28%. For the same compound, the Brain radioactivity level in series [3] (setting [8]) was determined as 39.6 DPM/µg; in series [3] (setting [9]) it was 146.1 DPM/µg; in series [3] (P4, acute i.p., 30 min), 117.5 DPM/µg; in series [3] (setting [10]), 84.4 DPM/µg; in series [3] (adult, acute i.p., 30 min), 27.3 DPM/µg; in series [3] (setting [11]), 17.6 DPM/µg. Moreover, the CSF radioactivity level in series [3] (setting [8]) is 35.3 DPM/µl; in series [3] (setting [9]), 119.0 DPM/µl; in series [3] (P4, acute i.p., 30 min), 96.5 DPM/µl; in series [3] (setting [10]), 71.0 DPM/µl; in series [3] (adult, acute i.p., 30 min) it was 25.4 DPM/µl; in series [3] (setting [11]), 14.9 DPM/µl. Moreover, the Plasma radioactivity level is recorded as 57.8 DPM/µl in series [3] (setting [8]); 140.5 DPM/µl in series [3] (setting [9]); 193.6 DPM/µl in series [3] (P4, acute i.p., 30 min); 166.8 DPM/µl in series [3] (setting [10]); 90.1 DPM/µl in series [3] (adult, acute i.p., 30 min); 83.3 DPM/µl in series [3] (setting [11]). Besides, the “transfer into maternal brain (brain/maternal blood)” value in series [3] (acute) is listed as 30%; in series [3] (chronic (five days of twice-daily dosing)) it was 21%.

Take `OC[C@H]1O[C@@](CO)(O[C@H]2O[C@H](CO)[C@@H](O)[C@H](O)[C@H]2O)[C@@H](O)[C@@H]1O` [sucrose, Sucrose]: in series [2] (rat, in vivo), the CSF/Plasma Ratio result is “very low”. Further, in series [2] (rat, in vivo, 0.5 h), the Brain/Plasma Ratio entry is reported as “very low”.
